From patent US20250026766A1, “Thiazolopyridyl Amide Derivatives as DNA Polymerase Theta Inhibitors” (BeiGene, Ltd., priority 2022, published 2025)

Biological target: Pol Theta (1-894) (Homo sapiens (Human), UniProt O75417)
Assay: Biochemical Pol Theta (1-894) ATPase IC50 assay (ADP-Glo, ssDNA substrate)
Settings: ADP-Glo assay with ssDNA substrate, room temperature
How it was run: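 His-tagged human Pol Theta 1-894 from Sf9 baculovirus cells, 2× enzyme solution at 12.5 nM, assayed with ssDNA substrate at room temperature in 40 mM Tris pH 7.5, 20 mM MgCl2, 1 mM DTT, 0.01% BSA, 0.05% Tween-20.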

Pol Theta (1-894), sequence (O75417 1-894): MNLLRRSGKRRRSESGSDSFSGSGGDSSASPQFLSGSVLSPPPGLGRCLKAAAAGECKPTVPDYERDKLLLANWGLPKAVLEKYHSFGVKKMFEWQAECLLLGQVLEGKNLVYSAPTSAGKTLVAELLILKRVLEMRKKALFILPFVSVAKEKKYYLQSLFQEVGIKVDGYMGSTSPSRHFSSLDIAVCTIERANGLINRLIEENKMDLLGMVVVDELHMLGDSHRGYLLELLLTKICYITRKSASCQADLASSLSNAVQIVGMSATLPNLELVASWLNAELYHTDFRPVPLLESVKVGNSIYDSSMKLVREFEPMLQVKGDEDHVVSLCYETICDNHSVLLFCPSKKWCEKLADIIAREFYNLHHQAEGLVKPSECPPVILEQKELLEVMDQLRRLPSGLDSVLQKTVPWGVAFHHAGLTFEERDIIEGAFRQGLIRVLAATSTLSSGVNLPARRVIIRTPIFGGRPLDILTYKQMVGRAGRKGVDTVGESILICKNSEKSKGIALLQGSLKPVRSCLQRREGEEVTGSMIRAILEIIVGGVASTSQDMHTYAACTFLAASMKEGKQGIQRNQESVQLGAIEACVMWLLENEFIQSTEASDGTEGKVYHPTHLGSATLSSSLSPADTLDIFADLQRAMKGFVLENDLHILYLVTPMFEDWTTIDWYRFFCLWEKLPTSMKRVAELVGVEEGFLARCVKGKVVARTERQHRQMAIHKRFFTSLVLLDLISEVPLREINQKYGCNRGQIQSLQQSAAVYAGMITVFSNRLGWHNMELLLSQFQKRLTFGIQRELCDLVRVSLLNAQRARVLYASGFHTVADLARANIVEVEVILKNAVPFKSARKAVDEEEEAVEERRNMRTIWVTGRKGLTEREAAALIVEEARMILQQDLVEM

SMILES | IC50 [nM]
COc1ccc(C#N)cc1-c1cc(C)ncc1C(=O)Nc1nc2ccc(-c3ccc(C(=O)NC(C)C)cc3)nc2s1 [Example 74, 4-(5-cyano-2-methoxyphenyl)-N-(5-(4-(isopropylcarbamoyl)phenyl)thiazolo[5,4-b]pyridin-2-yl)-6-methylnicotinamide] | 73
COc1c(F)cccc1-c1cc(C)ncc1C(=O)Nc1nc2ccc(-c3ccc(C#N)cc3)nc2s1 [Example 75, N-(5-(4-cyanophenyl)thiazolo[5,4-b]pyridin-2-yl)-4-(3-fluoro-2-methoxyphenyl)-6-methylnicotinamide] | 32
COc1ccc([N+](=O)[O-])cc1-c1cc(C)ncc1C(=O)Nc1nc2ccc(-c3ccc(C#N)cc3)nc2s1 [Example 76, N-(5-(4-cyanophenyl)thiazolo[5,4-b]pyridin-2-yl)-4-(2-methoxy-5-nitrophenyl)-6-methylnicotinamide] | 5.8
COCCOc1ccc2nc(NC(=O)c3cnc(C)cc3-c3cc(C#N)ccc3OC)sc2n1 [Example 77, 4-(5-cyano-2-methoxyphenyl)-N-(5-(2-methoxyethoxy)thiazolo[5,4-b]pyridin-2-yl)-6-methylnicotinamide] | 50
COc1ccc(C#N)cc1-c1cc(C)ncc1C(=O)Nc1nc2ccc(-c3ccc(N4CCCC4=O)c(C)c3)nc2s1 [Example 78, 4-(5-cyano-2-methoxyphenyl)-6-methyl-N-(5-(3-methyl-4-(2-oxopyrrolidin-1-yl)phenyl)thiazolo[5,4-b]pyridin-2-yl)nicotinamide] | 7.5
COCc1ccc(-c2ccc3nc(NC(=O)c4cnc(C)cc4-c4cc(C#N)ccc4OC)sc3n2)cc1 [Example 79, 4-(5-cyano-2-methoxyphenyl)-N-(5-(4-(methoxymethyl)phenyl)thiazolo[5,4-b]pyridin-2-yl)-6-methylnicotinamide] | 41
COc1ccc(C#N)cc1-c1cc(C)ncc1C(=O)Nc1nc2ccc(-c3ccc(C(C)(C)O)cc3)nc2s1 [Example 80, 4-(5-cyano-2-methoxyphenyl)-N-(5-(4-(2-hydroxypropan-2-yl)phenyl)thiazolo[5,4-b]pyridin-2-yl)-6-methylnicotinamide] | 26
COc1ccccc1-c1cnncc1C(=O)Nc1nc2ccc(-c3ccc(S(C)(=O)=O)cc3)nc2s1 [Example 81, 5-(2-methoxyphenyl)-N-(5-(4-(methylsulfonyl)phenyl)thiazolo[5,4-b]pyridin-2-yl)pyridazine-4-carboxamide] | 7.7
COc1c(C#N)cccc1-c1cc(C)ncc1C(=O)Nc1nc2ccc(-c3ccc(C#N)cc3)nc2s1 [Example 82, 4-(3-cyano-2-methoxyphenyl)-N-(5-(4-cyanophenyl)thiazolo[5,4-b]pyridin-2-yl)-6-methylnicotinamide] | 272
COc1ccccc1-c1cnncc1C(=O)Nc1nc2ccc(-c3ccc(C#N)cc3)nc2s1 [Example 83, N-(5-(4-cyanophenyl)thiazolo[5,4-b]pyridin-2-yl)-5-(2-methoxyphenyl)pyridazine-4-carboxamide] | 6.2
COc1ccc(C#N)cc1-c1cc(C)ncc1C(=O)Nc1nc2ccc(-c3ccc(C(=O)N4CCOCC4)cc3)nc2s1 [Example 84, 4-(5-cyano-2-methoxyphenyl)-6-methyl-N-(5-(4-(morpholine-4-carbonyl)phenyl)thiazolo[5,4-b]pyridin-2-yl)nicotinamide] | 49
COc1ccc(C#N)cc1-c1cc(C)ncc1C(=O)Nc1nc2ccc(-c3ccc(C(=O)N4CCCC4)cc3)nc2s1 [Example 85, 4-(5-cyano-2-methoxyphenyl)-6-methyl-N-(5-(4-(pyrrolidine-1-carbonyl)phenyl)thiazolo[5,4-b]pyridin-2-yl)nicotinamide] | 62
COc1ccc(C#N)cc1-c1cc(C)ncc1C(=O)Nc1nc2ccc(-c3ccc(C(=O)N(C)C)cc3)nc2s1 [Example 86, 4-(5-cyano-2-methoxyphenyl)-N-(5-(4-(dimethylcarbamoyl)phenyl)thiazolo[5,4-b]pyridin-2-yl)-6-methylnicotinamide] | 7.4
COc1cccc(C)c1-c1cc(C)ncc1C(=O)Nc1nc2ccc(-c3ccc(C#N)cc3)nc2s1 [Example 87, N-(5-(4-cyanophenyl)thiazolo[5,4-b]pyridin-2-yl)-4-(2-methoxy-6-methylphenyl)-6-methylnicotinamide] | 371
COc1ccccc1-c1cnncc1C(=O)Nc1nc2ccc(-c3ccc(C(=O)N4CCCC4)cc3)nc2s1 [Example 88, 5-(2-methoxyphenyl)-N-(5-(4-(pyrrolidine-1-carbonyl)phenyl)thiazolo[5,4-b]pyridin-2-yl)pyridazine-4-carboxamide] | 50
COc1ccc(C#N)cc1-c1cc(C)ncc1C(=O)Nc1nc2ccc(-c3ccc(N(C)S(C)(=O)=O)c(C)c3)nc2s1 [Example 89, 4-(5-cyano-2-methoxyphenyl)-6-methyl-N-(5-(3-methyl-4-(N-methylmethylsulfonamido)phenyl)thiazolo[5,4-b]pyridin-2-yl)nicotinamide] | 23
COc1ccc(C#N)cc1-c1cc(C)ncc1C(=O)Nc1nc2ccc(-c3ccc(NS(C)(=O)=O)c(F)c3)nc2s1 [Example 90, 4-(5-cyano-2-methoxyphenyl)-N-(5-(3-fluoro-4-(methylsulfonamido)phenyl)thiazolo[5,4-b]pyridin-2-yl)-6-methylnicotinamide] | 4.1

SMILES | IC50 [nM]
COc1ccccc1-c1cnncc1C(=O)Nc1nc2ccc(-c3ccc(C(=O)N(C)C)cc3)nc2s1 [Example 92, N-(5-(4-(dimethylcarbamoyl)phenyl)thiazolo[5,4-b]pyridin-2-yl)-5-(2-methoxyphenyl)pyridazine-4-carboxamide] | 16
COc1ccccc1-c1cnncc1C(=O)Nc1nc2ccc(-c3ccc(N4CCCC4=O)cc3)nc2s1 [Example 93, 5-(2-methoxyphenyl)-N-(5-(4-(2-oxopyrrolidin-1-yl)phenyl)thiazolo[5,4-b]pyridin-2-yl)pyridazine-4-carboxamide] | 20
CCNC(=O)c1ccc2nc(NC(=O)c3cnncc3-c3ccccc3OC)sc2n1 [Example 94, N-ethyl-2-(5-(2-methoxyphenyl)pyridazine-4-carboxamido)thiazolo[5,4-b]pyridine-5-carboxamide] | 29
CCOc1ccc2nc(NC(=O)c3cnncc3-c3ccccc3OC)sc2n1 [Example 95, N-(5-ethoxythiazolo[5,4-b]pyridin-2-yl)-5-(2-methoxyphenyl)pyridazine-4-carboxamide] | 72
COc1cc(Cl)ccc1-c1ccc2nc(NC(=O)c3cnncc3-c3ccccc3OC)sc2n1 [Example 96, N-(5-(4-chloro-2-methoxyphenyl)thiazolo[5,4-b]pyridin-2-yl)-5-(2-methoxyphenyl)pyridazine-4-carboxamide] | 60
COc1ccccc1-c1cnncc1C(=O)Nc1nc2ccc(-c3ccc(Cl)cc3C)nc2s1 [Example 97, N-(5-(4-chloro-2-methylphenyl)thiazolo[5,4-b]pyridin-2-yl)-5-(2-methoxyphenyl)pyridazine-4-carboxamide] | 27
COc1ccccc1-c1cnncc1C(=O)Nc1nc2ccc(Oc3ccc(Cl)cc3)nc2s1 [Example 98, N-(5-(4-chlorophenoxy)thiazolo[5,4-b]pyridin-2-yl)-5-(2-methoxyphenyl)pyridazine-4-carboxamide] | 22
COc1ccccc1-c1cnncc1C(=O)Nc1nc2ccc(-c3ccc(Cl)cc3C(F)(F)F)nc2s1 [Example 99, N-(5-(4-chloro-2-(trifluoromethyl)phenyl)thiazolo[5,4-b]pyridin-2-yl)-5-(2-methoxyphenyl)pyridazine-4-carboxamide] | 66
COc1ccccc1-c1cnncc1C(=O)Nc1nc2ccc(-c3ccc(Cl)cc3F)nc2s1 [Example 100, N-(5-(4-chloro-2-fluorophenyl)thiazolo[5,4-b]pyridin-2-yl)-5-(2-methoxyphenyl)pyridazine-4-carboxamide] | 29
COc1ccccc1-c1cnncc1C(=O)Nc1nc2ccc(-c3c(C)cc(Cl)cc3C)nc2s1 [Example 101, N-(5-(4-chloro-2,6-dimethylphenyl)thiazolo[5,4-b]pyridin-2-yl)-5-(2-methoxyphenyl)pyridazine-4-carboxamide] | 35
COc1ccccc1-c1cnncc1C(=O)Nc1nc2ccc(-c3ccc(C(=O)NC(C)C)cc3)nc2s1 [Example 102, N-(5-(4-(isopropylcarbamoyl)phenyl)thiazolo[5,4-b]pyridin-2-yl)-5-(2-methoxyphenyl)pyridazine-4-carboxamide] | 63
COc1ccccc1-c1cnncc1C(=O)Nc1nc2ccc(-c3ccc(C(=O)N4CCOCC4)cc3)nc2s1 [Example 103, 5-(2-methoxyphenyl)-N-(5-(4-(morpholine-4-carbonyl)phenyl)thiazolo[5,4-b]pyridin-2-yl)pyridazine-4-carboxamide] | 83
COc1cccc(F)c1-c1cc(C)ncc1C(=O)Nc1nc2ccc(-c3ccc(C#N)cc3)nc2s1 [Example 104, N-(5-(4-cyanophenyl)thiazolo[5,4-b]pyridin-2-yl)-4-(2-fluoro-6-methoxyphenyl)-6-methylnicotinamide] | 6.5
CCOc1ccc(C#N)cc1-c1cc(C)ncc1C(=O)Nc1nc2ccc(-c3ccc(C#N)cc3)nc2s1 [Example 105, 4-(5-cyano-2-ethoxyphenyl)-N-(5-(4-cyanophenyl)thiazolo[5,4-b]pyridin-2-yl)-6-methylnicotinamide] | 16
Cc1cc(-c2cc(C#N)ccc2C)c(C(=O)Nc2nc3ccc(-c4ccc(C#N)cc4)nc3s2)cn1 [Example 106, 4-(5-cyano-2-methylphenyl)-N-(5-(4-cyanophenyl)thiazolo[5,4-b]pyridin-2-yl)-6-methylnicotinamide] | 26
COc1ccc(C#N)cc1-c1cc(C)ncc1C(=O)Nc1nc2ccc(CCc3ccc(Cl)cc3)nc2s1 [Example 107, N-(5-(4-chlorophenethyl)thiazolo[5,4-b]pyridin-2-yl)-4-(5-cyano-2-methoxyphenyl)-6-methylnicotinamide] | 17
